According to patent US20250120399A1, “METHODS AND COMPOSITIONS FOR ALTERING METABOLITES IN VITIS SPP. AND PREVENTING PESTS AND PATHOGENS” (Impello Biosciences, Inc., priority 2022, published 2025):

What was measured:
Format in all cases: in vivo
[1] = system: Black seedless grapes (Vitis labrusca); assay: Red grape panel analysis (ETS Laboratories), black seedless grapes (Example 5); details: for Fruit catechin: ABCDE, Aug. 18, 2022
Method: Field trials were conducted in California 2022 (a dry year) to investigate the efficacy of MDJ in preventing Sour Rot caused by Aspergillus carbonarius (also known as summer bunch rot, abbreviated ASPECA in Table 7). Black seedless grapes (Vitis labrusca) were used in this trial. Four vines were used per plot. The plots were arranged in a randomized complete block design with six replicates (plots) per treatment. The plots were sprayed five times (ABCDE) at a rate of 500 gal/AC.
Treatments consisted of MDJ at 32 oz and 48 oz/A. A treatment of Regalia® at 1.5 qt/100 gal and Stargus® at 2 qt/100 gal was included for comparative purposes. Application D occurred at 5-10% veraison. Application E occurred at 40% veraison.
A randomly selected sample of approximately twenty wine grapes was used to evaluate the Brix and titratable acid. Another randomly selected sample (>500 g) was shipped to ETS Laboratories (Paso Robles, CA) for a red grape panel analysis (catechin, quercetin glycosides, tannin, polymeric anthocyanins, total anthocyanins, catechin/tannin index, and polymeric anthocyanins/tannin index). […] Total anthocyanins increased over 17% (449.1 in untreated controls compared to 529.3 in the group treated with 48 oz/A MDJ). An increase in quercetin glycosides, tannin, and polymeric anthocyanins, was also observed in MDJ treated plants (Table 8), as well as titratable acid (Table 9).

Aspergillus carbonarius = assay: Sour rot incidence and severity on Kyoho grapes, 2022 field trial (Example 6); details: for sour rot Incidence per plot (PESINC, clusters) / sour rot severity High (PESSEV, clusters) / sour rot severity Low (PESSEV, clusters) / sour rot severity Medium (PESSEV, clusters): applications ABCD; for sour rot severity High (PESSEV, clusters): high (>51%); for sour rot severity Low (PESSEV, clusters): low (<40% of cluster area infected); for sour rot severity Medium (PESSEV, clusters): medium (41%-50%)
Method: Field trials were conducted in California 2022 (a dry year) to investigate the efficacy of MDJ in preventing Sour Rot caused by Aspergillus carbonarius (also known as summer bunch rot, abbreviated ASPECA in Table 10). Kyoho grapes (Vitis vinifera×Vitis labrusca) were used in this trial. Three vines were used per plot. The plots were arranged in a randomized complete block design with six replicates (plots) per treatment (24 plots total). The plots were sprayed four times (ABCD) at a rate of 500 gal/AC.
Treatments consisted of MDJ at 32 oz and 48 oz/A. A treatment of Regalia® at 1.5 qt/100 gal and Stargus® at 2 qt/100 gal was included for comparative purposes.
Botrytis and powdery mildew were absent for the trial. An evaluation of sour rot was completed before the harvest. The area of an infected cluster was estimated into a percentage and categorized into three levels of severity: low (<40%), medium (41%-50%), and high (>51%). The majority of individual infected clusters had low severity.

Botrytis cinerea = Botrytis cinerea disease score (0-5) on inoculated hemp plants (Example 7); details: at harvest, 8 replicates
Method: A Botrytis cinerea isolate was cultured onto potato-dextrose agar (PDA) and re-isolated by taking a mycelial plug from the edge of actively growing cultures every 2-3 weeks to maintain active growing culture. It was maintained at 20° C. under continuous light (˜[…] m^−2 s^−1). An inoculum was prepared by flooding a full grown B. cinerea PDA plate with DI water and 0.1% Tween-20 to create a suspension of fungal spores. Spore count was quantified.
In the first inoculation, a suspension of 1.2×10^4 spores of B. cinerea/mL was created, and 1.5 mL was applied to the top cola/underdeveloped inflorescence of each hemp plant in the first week of flowering. In the second inoculation, a suspension of 1.5×10^5 spores of B. cinerea/mL was created, and sucrose was added to 1% concentration, and the plants were sprayed until drip using a backpack sprayer.
Inoculated plants were placed in a controlled growth environment with a constant temperature of 20-25° C. and 50-70% relative humidity. (See Zhang et al., “Infection Assays of Tomato and Apple Fruit by the Fungal Pathogen Botrytis cinerea,” bio-protocol 2014; 4 (23): 1-4. See also, Bulger et al. Phytopathology 1987; 77 (8): 1225-1230 and Garfinkel, Plant Disease 2020; 104 (7): 2026.)
Treatments comprising 1 mM or 5 mM jasmonate (MDJ) were applied alone or alongside a biological (Continuum™). […]

[2] = fruit, Aug. 18, 2022, 32 oz/a, applications ABCDE
[3] = fruit, Aug. 18, 2022, 48 oz/a, applications ABCDE

CCCCCC1C(=O)CCC1CC(=O)OC (stereo not shown) [MDJ, methyl dihydrojasmonate] was tested, and the Fruit catechin ([1]; 32 oz/a) was 0.8b mg/L, the “Increase of total anthocyanins vs untreated controls” value ([1]; 48 oz/A MDJ) was “over 17%” and the total anthocyanins ([1]; 48 oz/A MDJ) was 529.3. The Fruit catechin ([1]; 48 oz/a) was 2.6a mg/L, the Catechin vs untreated ([1]; MDJ treated plants) was “increase” and the “Polymeric anthocyanins vs untreated” value ([1]; MDJ treated plants) was “increase”. The “Quercetin glycosides vs untreated” value ([1]; MDJ treated plants) was “increase”, the Tannin vs untreated ([1]; MDJ treated plants) was “increase” and the catechin/tannin index [1, 2] was 0.0—. The polymeric anthocyanins [1, 2] was 13.5— mg/L, the polymeric anthocyanins/tannin index [1, 2] was 0.0312— and the quercetin glycosides [1, 2] was 89.8— mg/L. For the same compound, the tannin [1, 2] was 432.0— mg/L, the total anthocyanins [1, 2] was 388.3— mg/L and the catechin/tannin index [1, 3] was 0.0—. For the same compound, the polymeric anthocyanins [1, 3] was 14.7— mg/L, the polymeric anthocyanins/tannin index [1, 3] was 0.0304— and the quercetin glycosides [1, 3] was 113.2— mg/L. For the same compound, the tannin [1, 3] was 483.2— mg/L, the total anthocyanins [1, 3] was 529.3— mg/L and the “sour rot Incidence per plot (PESINC, clusters)” value (Aspergillus carbonarius; Aug. 17, 2022, 32 oz/a) was 0.8— number. The “sour rot Incidence per plot (PESINC, clusters)” value (Aspergillus carbonarius; Aug. 17, 2022, 48 oz/a) was 1.2— number, the “sour rot severity High (PESSEV, clusters)” value (Aspergillus carbonarius; Aug. 17, 2022, 32 oz/a) was 0.0— number and the “sour rot severity High (PESSEV, clusters)” value (Aspergillus carbonarius; Aug. 17, 2022, 48 oz/a) was 0.0— number. For the same compound, the “sour rot severity Low (PESSEV, clusters)” value (Aspergillus carbonarius; Aug. 17, 2022, 32 oz/a) was 0.8— number, the “sour rot severity Low (PESSEV, clusters)” value (Aspergillus carbonarius; Aug. 17, 2022, 48 oz/a) was 0.8— number and the “Control of sour rot compared to the rest of the treatments” value (Aspergillus carbonarius; lower rate of MDJ Elicitor (32 oz/A)) was “highest efficacy in controlling sour rot”. The “sour rot severity Medium (PESSEV, clusters)” value (Aspergillus carbonarius; Aug. 17, 2022, 32 oz/a) was 0.0— number, the “sour rot severity Medium (PESSEV, clusters)” value (Aspergillus carbonarius; Aug. 17, 2022, 48 oz/a) was 0.3— number and the “Average Disease Score (0-5)” value (Botrytis cinerea; condition B, 1 mM MDJ foliar spray) was 2.625. The “Average Disease Score (0-5)” value (Botrytis cinerea; condition C, 5 mM MDJ foliar spray) was 2.250.
